Experiment [1] concerns the target T1, Nuclear receptor ROR-gamma (Homo sapiens, UniProt P51449).
T1 sequence (P51449 whole entry): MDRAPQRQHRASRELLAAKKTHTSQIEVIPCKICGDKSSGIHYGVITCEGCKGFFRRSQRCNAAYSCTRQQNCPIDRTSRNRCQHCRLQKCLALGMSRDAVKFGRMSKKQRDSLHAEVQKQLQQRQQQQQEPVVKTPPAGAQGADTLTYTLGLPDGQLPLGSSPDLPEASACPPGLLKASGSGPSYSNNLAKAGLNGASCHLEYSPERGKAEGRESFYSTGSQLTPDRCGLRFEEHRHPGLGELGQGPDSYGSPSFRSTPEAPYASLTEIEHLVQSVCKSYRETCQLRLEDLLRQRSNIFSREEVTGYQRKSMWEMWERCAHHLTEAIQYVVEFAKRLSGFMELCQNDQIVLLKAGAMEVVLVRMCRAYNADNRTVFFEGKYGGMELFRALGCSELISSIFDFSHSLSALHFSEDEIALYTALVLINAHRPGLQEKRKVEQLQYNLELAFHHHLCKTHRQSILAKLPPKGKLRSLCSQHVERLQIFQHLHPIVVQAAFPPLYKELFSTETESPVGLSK
Put plainly: Agonist activity at APC-labelled RORgammat (unknown origin) assessed as biotinylated SRC recruitment measured after 1 hr by dual FRET assay.

Experiment [2] deals with T2, Nuclear receptor ROR-gamma (Mus musculus) (UniProt P51450).
T2 sequence (whole entry): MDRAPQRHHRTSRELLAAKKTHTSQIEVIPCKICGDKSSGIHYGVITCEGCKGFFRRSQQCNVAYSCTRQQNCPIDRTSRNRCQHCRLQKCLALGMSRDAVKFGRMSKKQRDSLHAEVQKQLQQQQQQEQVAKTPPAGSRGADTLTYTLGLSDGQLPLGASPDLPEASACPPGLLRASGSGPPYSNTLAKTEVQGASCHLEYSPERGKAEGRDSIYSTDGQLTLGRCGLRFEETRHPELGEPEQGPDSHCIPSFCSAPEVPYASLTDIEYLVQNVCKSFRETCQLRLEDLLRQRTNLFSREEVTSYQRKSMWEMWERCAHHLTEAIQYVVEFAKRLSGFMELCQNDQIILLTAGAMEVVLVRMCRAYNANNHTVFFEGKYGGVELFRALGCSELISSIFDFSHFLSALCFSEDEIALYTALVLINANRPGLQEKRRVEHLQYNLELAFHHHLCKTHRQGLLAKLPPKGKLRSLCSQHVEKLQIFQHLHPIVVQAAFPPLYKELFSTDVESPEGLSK
Put plainly: Agonist activity at RORgammat in mouse CD4+ Th17 cells assessed as promotion of IL17 production at 30 nM measured after 4 days by intracellular staining based flow cytometry. Format: cell-based. To be noted: filed as agonist, time 4.0 day. (In flow cytometry, cells or beads pass a laser one at a time.)

In experiment [3] the target is T1, Nuclear receptor ROR-gamma. Put plainly: Agonist activity at human RORgammat LBD expressed in HEK293T cells assessed increase in Gal4 reporter gene transcription measured after 16 to 20 hrs by luciferase reporter gene assay. Format: cell-based. For orientation: In a reporter assay the amount or activity of a reporter protein is the signal.
In experiment [4] the target is T2, Nuclear receptor ROR-gamma (Mus musculus). Put plainly: Agonist activity at RORgammat in mouse CD4+ Th17 cells assessed as promotion of IL17 production at 300 nM measured after 4 days by intracellular staining based flow cytometry. Format: cell-based. To be noted: filed as agonist, time 4.0 day.
Experiment [5] deals with T1, Nuclear receptor ROR-gamma. Put plainly: Inverse agonist activity at human RORgammat LBD expressed in HEK293T cells assessed inhibition of Gal4 reporter gene transcription measured after 16 to 20 hrs by luciferase reporter gene assay. It is filed as cell-based.
The target in experiment [6] is T1, Nuclear receptor ROR-gamma. Put plainly: Inverse agonist activity at APC-labelled RORgammat (unknown origin) assessed as inhibition of biotinylated SRC recruitment measured after 1 hr by dual FRET assay.
For experiment [7], the target named is T3, Nuclear receptor ROR-gamma (Homo sapiens) (UniProt P51449).
T3 sequence (whole entry): T1 sequence (P51449 whole entry)
Put plainly: Inverse agonist activity at human RORgammat LBD expressed in HEK293T cells assessed inhibition of Gal4 reporter gene transcription measured after 16 to 20 hrs by luciferase reporter gene assay relative to control. The note with it: filed as inverse agonist, time 16-20 hrs. Format: cell-based.

Here are results for 25 compounds from ChEMBL document CHEMBL4819001, “Discovery of tetrahydroquinolines and benzomorpholines as novel potent RORγt agonists” (Eur J Med Chem, 2021).

pEC50, pIC50: −log10 of the molar value.

Take `CS(=O)(=O)c1ccc(CC(=O)Nc2ccc(CCN3CCOc4ccc(C(F)(C(F)(F)F)C(F)(F)F)cc43)cc2)cc1`: the pEC50 in experiment [1] was 7.34.
As to `CCS(=O)(=O)c1ccc(CC(=O)Nc2ccc(CCN3CCCc4ccc(C(C)C)cc43)cc2)cc1`, the pEC50 in experiment [1] is 7.66.
With `CCS(=O)(=O)c1ccc(CNC(=O)c2ccc(CCN3CCCc4ccc(CC(C)C)cc43)cc2)nc1`, the Activity in experiment [2] came out at 56.3%; in experiment [4], 104%. The values for the pEC50 in experiment [1] and in experiment [3] were 8.05 and 6.62, respectively.
As to `CCS(=O)(=O)c1ccc(CNC(=O)c2ccc(CCN3CCCc4ccc(OC(C)C)cc43)cc2)nc1`, in experiment [1], the pEC50 is 8.05.
In the case of `CCS(=O)(=O)c1ccc(CC(=O)Nc2ccc(CC(=O)N3CCCc4ccc(CC(C)C)cc43)cc2)cc1`, the pIC50 in experiment [5] is 6.82; in experiment [6] it was 7.50. Also, the Imax in experiment [7] turned out to be 101%.
Regarding `CCS(=O)(=O)c1ccc(CNC(=O)c2ccc(CCN3CCCc4ccc(OC5CCC5)cc43)cc2)nc1`, the pEC50 in experiment [1] was 7.91.
`CCS(=O)(=O)c1ccc(CNC(=O)c2ccc(CCN3CCOc4ccc(CC(C)C)cc43)cc2)nc1`: the pEC50 in experiment [1] is 8.15.
As for `CC(C)Oc1ccc2c(c1)N(CCc1ccc(NC(=O)Cc3ccc(S(C)(=O)=O)cc3)cc1)CCO2`, the pEC50 in experiment [1] was 8.36.
Take `CS(=O)(=O)c1ccc(CC(=O)Nc2ccc(CCN3CCOc4ccc(C(O)(C(F)(F)F)C(F)(F)F)cc43)cc2)cc1`: the pIC50 in experiment [6] was 7.84.
For the compound `CC(Oc1ccc2c(c1)N(CCc1ccc(NC(=O)Cc3ccc(S(C)(=O)=O)cc3)cc1)CCO2)C(F)(F)F` (centres undefined), in experiment [1], the pEC50 is 8.36.
In the case of `CC(C)Oc1ccc2c(c1)N(CCc1ccc(C(=O)NCc3ccc(S(C)(=O)=O)cn3)cc1)CCO2`, the Activity in experiment [2] worked out at 45.2%; in experiment [4] it was 59.4%. For the same compound, the pEC50 was 8.12 in experiment [1] and 6.97 in experiment [3].
Turning to `CCS(=O)(=O)c1ccc(CNC(=O)Nc2ccc(CCN3CCCc4ccc(CC(C)C)cc43)cc2)cc1`, the pEC50 in experiment [1] is 7.59.
Still for that read-out and setting: next, `CCS(=O)(=O)c1ccc(C(CO)NC(=O)c2ccc(CCN3CCCc4ccc(CC(C)C)cc43)cc2)cc1` (centres undefined): 7.68.
The same measure, in the same setting: then `CCS(=O)(=O)c1ccc(CC(=O)Nc2ccc(CCN3CCCc4ccc(OC5COC5)cc43)cc2)cc1`, with 8.18.
Still for that read-out and setting: next, `CCS(=O)(=O)c1ccc(CC(=O)Nc2ccc(CCN3CCCc4ccc(C)cc43)cc2)cc1`: 7.78.
As for `CCS(=O)(=O)c1ccc(CC(=O)Nc2ccc(CCN3CCCc4ccc(F)cc43)cc2)cc1`, in experiment [1], the pEC50 was 7.94.
Same read-out and setting: next, `CCS(=O)(=O)c1ccc(CC(=O)Nc2ccc(CCN3CCCc4ccc(C=C(C)C)cc43)cc2)cc1`: 8.28; `CCS(=O)(=O)c1ccc(CC(=O)Nc2ccc(CCN3CCOc4ccc(OC(C)C)cc43)cc2)cc1`: 8.14; `CCS(=O)(=O)c1ccc(CC(=O)Nc2ccc(CCN3CCCc4ccc(OC5CCC5)cc43)cc2)cc1`: 7.81.
On the same count and under the same terms, then `CCS(=O)(=O)c1ccc(CNC(=O)c2ccc(CCN3CCCc4ccc(OC5COC5)cc43)cc2)nc1`, with 8.11; and `CCS(=O)(=O)c1ccc(CC(=O)Nc2ccc(CCN3CCCc4ccc(CC(C)(C)C)cc43)cc2)cc1`, with 7.52.
Turning to `CCS(=O)(=O)c1ccc(CC(=O)Nc2ccc(CCN3CCCc4ccccc43)cc2)cc1`, the pEC50 in experiment [1] is 7.67.
Consider `CCS(=O)(=O)c1ccc(CC(=O)Nc2ccc(CCN3CCCc4ccc(CC5CC5)cc43)cc2)cc1`, for which, in experiment [1], the pEC50 was 7.89.
As to `CCS(=O)(=O)c1ccc(CNC(=O)c2ccc(CCN3CCOc4ccc(OC(C)C)cc43)cc2)nc1`, the values for the pEC50 in experiment [1] and in experiment [3] were 8.34 and 6.87, respectively.
With `CCS(=O)(=O)c1ccc(CC(=O)Nc2ccc(CCN3CCCc4ccc(CC(C)C)cc43)c(F)c2)cc1`, the pEC50 in experiment [1] was 7.89.

As usually defined, the pEC50 is the negative decadic logarithm of the EC50, by convention in mol/L. One may read the pIC50 as the negative decadic logarithm of the IC50, by convention in mol/L.
